Results published in patent publication US8242126B2, “Quinazolinedione derivatives, preparation thereof and therapeutic uses thereof” (Sanofi, priority 2007, dated 2012).
Like-named read-outs stand apart in the source and are kept apart here.

Assays:
[1] = system: Human peripheral blood mononuclear cells (PBMNCs); test: Inhibition of T cell proliferation: [3H]-thymidine incorporation in PBMNCs activated by anti-CD3 and anti-CD28; format: cell-based; details: PBMC, 72 h + 8 h [3H]-thymidine, mean of the three experiments
Procedure: Human peripheral blood mononuclear cells (PBMNCs) were separated from the blood of healthy donors using a centrifuging gradient on a Ficoll-Paque™ Plus (GE Healthcare Bio-Sciences AB code 17-1440-03, Uppsala). A mixture of 5.0 ml of blood and 5.0 ml of phosphate buffered saline (PBS Gibco 14190) was deposited on 10.0 ml of Ficoll-Paque in a 50 ml Blue max tube (Becton Dickinson 352070) and centrifuged with 900 g for 30 min. The band of PBMNCs was withdrawn, washed in PBS and then centrifuged with 900 g for 10 minutes. Finally, the PBMNCs were suspended (2.5×10^5 cells/ml) in an RPMI 1640 complete medium+Glutamax (Gibco 61870) additivated with 10% of FCS, the complement of which has been heat inactivated, and with penicillin-streptomycin (Gibco 15140).
The PBMNCs were cultured in flat-bottomed 96-well plates, in a proportion of 0.5×10^5 cells/well in 200 μl of RPMI 1640 complete medium. The cells were activated by two monoclonal antibodies, one of anti-CD3 specificity, 20 ng/ml (Pharmingen 555329), and the other of anti-CD28 specificity, 200 ng/ml (Pharmingen 555725), in the presence of PDE7 inhibitors at five different concentrations, 10 μM, 3.3 μM, 1.1 μM, 0.36 μM and 0.12 μM, or of cyclosporin A, which acts as positive control of the halting of proliferation. […] After incubating for an additional 8 hours, the PBMNCs were collected on a Tomtec cell collector (Wallac) using a glass fibre filter (Wallac 1450-421), and incorporation of the [^3H]-thymidine in the nucleus of the cells was measured using a Microbeta 1450-Trilux (Wallac). The inhibition of the proliferation, expressed as percentage, was calculated using the following equation: 100−(cpm mean value of the cells in the presence of the compound/cpm mean value of the cells in the absence of the compound)×100. […]

Human PDE7 = target: T1, Human PDE7 (Homo sapiens, UniProt Q13946); test: PDE7 enzymatic assay (radioactive cAMP / 5′-AMP separation by TLC on PEI cellulose); format: biochemical
T1 construct: Human PDE7 was partially purified from the HUT-78 cell line; endogenous in cells
T1 sequence (Q13946 whole entry): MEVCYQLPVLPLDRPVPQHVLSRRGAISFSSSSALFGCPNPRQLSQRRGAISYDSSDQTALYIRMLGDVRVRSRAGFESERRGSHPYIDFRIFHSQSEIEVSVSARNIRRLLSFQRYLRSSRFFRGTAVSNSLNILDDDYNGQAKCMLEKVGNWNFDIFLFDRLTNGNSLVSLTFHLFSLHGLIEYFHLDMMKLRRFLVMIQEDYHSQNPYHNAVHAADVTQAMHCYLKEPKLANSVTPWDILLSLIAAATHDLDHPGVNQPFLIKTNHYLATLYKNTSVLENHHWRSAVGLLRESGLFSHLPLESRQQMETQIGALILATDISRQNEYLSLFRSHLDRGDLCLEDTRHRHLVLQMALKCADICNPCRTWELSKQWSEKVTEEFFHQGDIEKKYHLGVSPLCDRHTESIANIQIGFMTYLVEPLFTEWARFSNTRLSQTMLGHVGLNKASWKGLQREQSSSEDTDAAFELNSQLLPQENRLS
Procedure: The ability of the compounds of formula (I) to inhibit PDE7 is measured using an enzymatic assay based on the separation of radioactive cAMP (substrate of PDE7) from the radioactive 5′-AMP (product of the enzymatic reaction) by thin layer chromatography on polyethyleneimine (PEI) cellulose, after halting the enzymatic reaction. The 5′-AMP is extracted quantitatively from the PEI cellulose and its radioactivity is measured using a liquid scintillation counter.
The inhibitory activity of the compounds of formula (I) with regard to PDE7 is represented by the inhibition constant IC50, defined as the concentration of the compound (inhibitor) tested in the assay which makes it possible to reduce the enzymatic activity of PDE7 by 50%. The lower the IC50 values, the greater the inhibitory power of the compounds.
Human PDE7 was partially purified from the HUT-78 cell line by following a method analogous to that described by Bloom and Beavo (Proc. Natl. Acad. Sci. USA, (1996) 93, 14188-14192). The enzyme preparation obtained is stored at −80° C. in a buffer comprising 20 mM of Tris-HCl (pH 7.0), 5 mM of MgCl2, 4 mM of EDTA, 1 mM of dithiothreitol and 20% of glycerol. […] The Michaelis constant (Km) of PDE7 for cAMP, measured using the radiochemical assay described below, is 21 nM.
The compounds of formula (I) to be tested as PDE7 inhibitors are dissolved in DMSO at a concentration of 10 mM. These solutions are subsequently diluted in cascade in DMSO in order to obtain solutions with the desired concentrations. The latter are subsequently diluted to one-twentieth in the assay buffer to give 5% DMSO solutions. The latter are finally diluted to one-fifth in the enzymatic assay.
The assay is carried out in 1.5 ml Eppendorf tubes comprising 40 mM of Tris-HCl (pH 7.5), 15 mM of MgCl2, 1 mM of EGTA, 0.5 mg/ml of bovine serum albumin, […] of [^3H]-cAMP (corresponding to a cAMP concentration of between 15 and 25 nM), 10 μM of rolipram and PDE7 in a final volume of 100 μl. The assay is carried out in the absence (control sample) or in the presence (treated sample) of the compounds tested as PDE7 inhibitors. The final concentration of DMSO in the assay is 2%. The reaction is initiated by addition of enzyme and the samples are maintained at ambient temperature for 30 minutes. The enzymatic dilution is adjusted so as to obtain a degree of conversion of 10 to 15%. The enzymatic reaction is halted by immersion of the stoppered Eppendorf tubes in a water bath at 100° C. for 3 minutes. Blanks (reaction halted immediately after addition of the enzyme) are included in each experiment. The samples are subsequently centrifuged at 10 000×g for 1 minute and an aliquot portion of 10 μl of supernatant is deposited 2 cm from the bottom edge of a sheet of PEI cellulose on which 10 μg of cAMP and 10 μg of 5′-AMP have been deposited beforehand. In order to facilitate the migration and to make it easier to cut out the strips of PEI cellulose comprising the 5′-AMP, which take place subsequently, 18 migration lanes with a width of 1 cm are delimited per plate by scraping the cellulose with a spatula over a width of 1 mm. The plates are developed over their entire length with a 0.30 M solution of LiCl in water by ascending chromatography. The 5′-AMP (Rf=0.20) and the cAMP (Rf=0.47) are visualized under UV light at 254 nm. The strips of PEI cellulose comprising the 5′-AMP are cut out and the nucleotide is quantitatively extracted in counting flasks with 2 ml of a solution which is 16M in formic acid and 2M in ammonium formate in water (rotary stirrer for 15 min). After addition of 10 ml of scintillation liquid (OptiPhase HiSafe 3 from Perkin-Elmer/Wallac), the radioactivity is counted using a liquid scintillation counter (model 1414, Perkin-Elmer/Wallac). Each assay is carried out in duplicate. […]

PDE8 = PDE8 enzymatic assay equivalent to that described for PDE7; format: biochemical
CLL-PBMCs = details: PBMCs of patients suffering from chronic lymphocytic leukaemia; cited from earlier work
PBMCs of normal subjects = details: cited from earlier work
[2] = human PDE7 partially purified from HUT-78 cells, 10 μM rolipram present, read-out: IC50 (inhibition of PDE7)
[3] = table comparing PDE7 and PDE8, read-out: IC50 PDE7

Row | SMILES | IC50 (Human PDE7; [2]) [nM] | IC50 [1] [nM] | also measured
1 | COc1ccc(Cn2c(=O)c3cc(OC(C)C#N)ccc3n(C3CCN(C=O)CC3)c2=O)cc1OC (stereo not drawn) [No. 1, 2-{[3-(3,4-dimethoxybenzyl)-1-(1-formylpiperidin-4-yl)-2,4-dioxo-1,2,3,4-tetrahydroquinazolin-6-yl]oxy}propanenitrile] |  | 400 | 
2 | Cc1ccc([N+](=O)[O-])cc1S(=O)(=O)N(C)C [BRL-50481] |  |  | apoptosis of CLL-PBMCs (CLL-PBMCs): induces in a dose-dependent way the apoptosis; effect on PBMCs of normal subjects (PBMCs of normal subjects): without effect
3 | COc1cc(Cn2c(=O)c3cc(OC(CF)CF)ccc3n(C3CCN(C=O)CC3)c2=O)ccc1OCC(=O)N1CCCCC1 [No. 251, 4-{6-[2-fluoro-1-(fluoromethyl)ethoxy]-3-[3-methoxy-4-(2-oxo-2-(piperidin-1-yl)ethoxy)benzyl]-2,4-dioxo-3,4-dihydroquinazolin-1(2H)-yl}piperidine-1-carbaldehyde] |  |  | IC50 (Human PDE7; [3]): 46 nM
4 | N#Cc1cc(Cn2c(=O)c3cc(OC(CF)CF)ccc3n(C3CCN(C=O)CC3)c2=O)ccc1-c1ccccc1 [No. 294, 4-({6-[2-fluoro-1-(fluoromethyl)ethoxy]-1-(1-formylpiperidin-4-yl)-2,4-dioxo-1,4-dihydroquinazolin-3(2H)-yl}methyl)biphenyl-2-carbonitrile] |  |  | IC50 (Human PDE7; [3]): 37 nM; IC50 (PDE8): 15 nM

Further lines, with some results ahead:

Row | IC50 (Human PDE7; [2]) [nM] | SMILES | IC50 [1] [nM] | also measured
5 | 39 | COc1ccc(Cn2c(=O)c3cc(OC(CF)CF)ccc3n(C3CCN(C=O)CC3)c2=O)cc1OC [No. 11, 4-[3-(3,4-dimethoxybenzyl)-6-[2-fluoro-1-(fluoromethyl)ethoxy]-2,4-dioxo-3,4-dihydroquinazolin-1(2H)-yl]piperidine-1-carbaldehyde] | 900 | IC50 (PDE8): 140 nM
6 | 6.7 | COc1ccc(Cn2c(=O)c3cc(OC(F)F)ccc3n(C3CCN(C=O)CC3)c2=O)cc1OC [No. 111, 4-[6-(difluoromethoxy)-3-(3,4-dimethoxybenzyl)-2,4-dioxo-3,4-dihydroquinazolin-1(2H)-yl]piperidine-1-carbaldehyde] |  | 
7 | 15 | COc1ccc(Cn2c(=O)c3cc(OCC(F)F)ccc3n(C3CCN(C=O)CC3)c2=O)cc1OC [No. 16, 4-[6-(2,2-difluoroethoxy)-3-(3,4-dimethoxybenzyl)-2,4-dioxo-3,4-dihydroquinazolin-1(2H)-yl]piperidine-1-carbaldehyde] | 1300 | 
8 | 61 | COc1ccc(Cn2c(=O)c3c(Cl)cc(Cl)cc3n(C3CCN(C=O)CC3)c2=O)cc1OC [No. 97, 4-[5,7-dichloro-3-(3,4-dimethoxybenzyl)-2,4-dioxo-3,4-dihydroquinazolin-1(2H)-yl]piperidine-1-carbaldehyde] |  | 
9 | 89 | COc1ccc(Cn2c(=O)c3cc(OCCO)ccc3n(C3CCN(C=O)CC3)c2=O)cc1OC [No. 72, 4-[3-(3,4-dimethoxybenzyl)-6-(2-hydroxyethoxy)-2,4-dioxo-3,4-dihydroquinazolin-1(2H)-yl]piperidine-1-carbaldehyde] |  | 
10 | 820 | COc1ccc(Cn2c(=O)c3cc(CNC(C)=O)ccc3n(C3CCN(C=O)C3)c2=O)cc1OC (stereo not drawn) [No. 77, N-{[3-(3,4-dimethoxybenzyl)-1-(1-formylpyrrolidin-3-yl)-2,4-dioxo-1,2,3,4-tetrahydroquinazolin-6-yl]methyl}acetamide] |  | 
